Results reported in article PMC9143054 (Journal of Personalized Medicine, 2022).
Read-outs that look alike come from different tables or passages of the source.

Columns and labels:
[1] = cited from earlier work
[2] = Acetaminophen pharmacokinetics after 1 g intravenous infusion (serum LC-MS/MS, noncompartmental analysis); type: in vivo, human
Protocol: Serum samples were collected every 30 min starting from the administration until 6 h after the treatment was initiated and immediately frozen at −80 °C until analysis. […] The protocol also included the collection of whole blood samples for genetic analyses.
The samples were mixed for 15 s and kept on ice for 20 min. Then, the samples were centrifuged for 10 min at 3000× g, at 4 °C. The supernatant (750 μL) was evaporated under a nitrogen stream. Then, the samples were resuspended in 40 μL of a mixture containing water ([…]), methanol (2.5%), and formic acid (0.1%). […] The column temperature was set at 20 °C. The flow rate was 0.2 mL/min, and the mobile phase consisted of the following gradient: Mobile phase A: 0.1% formic acid in water; Mobile phase B: 0.1 formic acid in methanol. The elution was started with a proportion of 97.5% A:2.5% B. A linear gradient increase from 2.5% to 65%B over 0.6 min was used, and then, the mobile phase reversed to initial conditions. The mass spectrometer was operated in positive electrospray ionization using multiple reaction monitoring (MRM). The source was set at 500 °C and 5.5 kV. […] Pharmacokinetic analyses were carried out by use of WinNonlin® V5.3 (Pharsight Corporation, St. Louis, MO, USA). The pharmacokinetic model chosen to calculate all parameters was noncompartmental with intravenous infusion. Untransformed data were used for all analyses.

[3] = Adverse drug events attributable to acetaminophen in the study participants; type: in vivo, human; settings: single 1 g iv dose, ICU patients
[4] = UGT1A6*2/*2 diplotype vs UGT1A6*1/*1
[5] = UGT1A6*2/*4 diplotype vs UGT1A6*1/*1
[6] = concomitant drug therapy: Other (Inhibitors + Inducers) (n = 1), single patient, 1 g iv
[7] = human, serum, concomitant drug therapy: Other (Inhibitors + Inducers) (n = 1), single patient, 1 g iv

SMILES: CC(=O)Nc1ccc(O)cc1 [Acetaminophen]
- fraction of acetaminophen metabolized in vivo [1]: about 90%
- acetaminophen glucuronides as share of the metabolites recovered in urine ([1]; urine): about half
- acetaminophen glucuronides as share of the urine metabolites ([1]; urine): more than 50%
- effect of UGT1A9 genotypes (UGT1A9*1/*3, *3/*3) on pharmacokinetics ([2]; 65 individuals without UGT1A6 variants, Supplementary Table S5): No major differences
- pharmacokinetics in individuals who required on-demand opiates vs those who did not ([2]; Supplementary Table S6): No significant differences
- increase in drug exposure (AUMC) [2, 4]: 66%
- increase in t1/2 values [2, 4]: 38%
- increase in drug exposure (AUMC) [2, 5]: 76%
- increase in t1/2 values [2, 5]: 31%
- K10 [2, 6]: 0.45; - 1/h
- V (volume of distribution) [2, 6]: 299.16; - mg/(ug/mL)
- Vss [2, 6]: 299.16; - mg/(ug/mL)
- increase in t1/2 values ([2]; homozygous or double heterozygous for variant UGT1A6 alleles vs UGT1A6*1/*1): 22.5%
- half-life ([2]; human, serum, intravenous, 1 g, whole study group, from less than 0.5 h up to more than 3.5 h, read-out: half-life (t1/2) values, range across individuals): 0.5 to 3.5 h
- AUC(0-inf) [2, 7]: 7440 ng·h/mL
- AUC(0-t) [2, 7]: 6660 ng·h/mL
- C0 [2, 7]: 3340 ng/mL
- MRT [2, 7]: 2.23 h
- half-life ([2]; human, serum, concomitant drug therapy: Other (Inhibitors + Inducers) (n = 1), single patient, 1 g iv, read-out: t1/2 (converted)): 1.54 h
- adverse drug events attributable to acetaminophen [3]: None of the participants developed adverse drug events
